# Organism: Rattus norvegicus
# Assay: Open TG-GATES - Regimen: Single
# Format: toxicity, organism-based, Sprague-Dawley
# Parameters: regimen Single, gender Male, age 6 weeks
# Conditions: in vivo, po, route gavage; for APTT / Bas / Eos / Fbg / Hb / Ht / Lym / MCH / MCHC / MCV / Mono / Neu / PT / Plat / RBC / Ret / WBC: tissue Blood; for KIDNEY_L / KIDNEY_R / KIDNEY_TOTAL: tissue Kidney; for LIVER: tissue Liver; for ALP / ALT / AST / BUN / CRE / Ca / Cl / DBIL / GLC / IP / K / LDH / Na / PL / RALB / TBIL / TC / TP / gamma-GTP: tissue Plasma
# [1] = 5 mg/kg, 3 h, dose level Middle
# [2] = 5 mg/kg, 6 h, dose level Middle
# [3] = 5 mg/kg, 9 h, dose level Middle
smiles,measurement,setting,value
O=P1(N(CCCl)CCCl)NCCCO1 (stereo not given) [CYCLOPHOSPHAMIDE ANHYDROUS],TERMINAL_BW,"2 mg/kg, 24 h, dose level Low",197.9 g
same,APTT,"2 mg/kg, 24 h, dose level Low",22 s
same,Bas,"2 mg/kg, 24 h, dose level Low",0%
same,Eos,"2 mg/kg, 24 h, dose level Low",1%
same,Fbg,"2 mg/kg, 24 h, dose level Low",284.2 mg/dL
same,Hb,"2 mg/kg, 24 h, dose level Low",13.3 g/dL
same,Ht,"2 mg/kg, 24 h, dose level Low",39.7%
same,Lym,"2 mg/kg, 24 h, dose level Low",82%
same,MCH,"2 mg/kg, 24 h, dose level Low",21.1 pg
same,MCHC,"2 mg/kg, 24 h, dose level Low",33.5%
same,MCV,"2 mg/kg, 24 h, dose level Low",63 fL
same,Mono,"2 mg/kg, 24 h, dose level Low",2.2%
same,Neu,"2 mg/kg, 24 h, dose level Low",14.2%
same,PT,"2 mg/kg, 24 h, dose level Low",17 s
same,Plat,"2 mg/kg, 24 h, dose level Low",117.1 x10_4/uL
same,RBC,"2 mg/kg, 24 h, dose level Low",630.8 x10_4/ul
same,Ret,"2 mg/kg, 24 h, dose level Low",7%
same,WBC,"2 mg/kg, 24 h, dose level Low",74.3 x10_2/uL
same,KIDNEY_L,"2 mg/kg, 24 h, dose level Low",0.9 g
same,KIDNEY_R,"2 mg/kg, 24 h, dose level Low",0.9 g
same,KIDNEY_TOTAL,"2 mg/kg, 24 h, dose level Low",1.8 g
same,LIVER,"2 mg/kg, 24 h, dose level Low",9.1 g
same,ALP,"2 mg/kg, 24 h, dose level Low",1746.6 IU/L
same,ALT,"2 mg/kg, 24 h, dose level Low",44.6 IU/L
same,AST,"2 mg/kg, 24 h, dose level Low",72.8 IU/L
same,BUN,"2 mg/kg, 24 h, dose level Low",17.4 mg/dL
same,CRE,"2 mg/kg, 24 h, dose level Low",0.2 mg/dL
same,Ca,"2 mg/kg, 24 h, dose level Low",10.9 mg/dL
same,Cl,"2 mg/kg, 24 h, dose level Low",106 meq/L
same,DBIL,"2 mg/kg, 24 h, dose level Low",0 mg/dL
same,GLC,"2 mg/kg, 24 h, dose level Low",179.6 mg/dL
same,IP,"2 mg/kg, 24 h, dose level Low",7.5 mg/dL
same,K,"2 mg/kg, 24 h, dose level Low",4.5 meq/L
same,LDH,"2 mg/kg, 24 h, dose level Low",207.2 IU/L
same,Na,"2 mg/kg, 24 h, dose level Low",142.4 meq/L
same,PL,"2 mg/kg, 24 h, dose level Low",139.6 mg/dL
same,RALB,"2 mg/kg, 24 h, dose level Low",3 g/dL
same,TBIL,"2 mg/kg, 24 h, dose level Low",0.006 mg/dL
same,TC,"2 mg/kg, 24 h, dose level Low",70.6 mg/dL
same,TP,"2 mg/kg, 24 h, dose level Low",5.5 g/dL
same,gamma-GTP,"2 mg/kg, 24 h, dose level Low",0.8 IU/L
same,TERMINAL_BW,[1],186.6 g
same,APTT,[1],22.8 s
same,Bas,[1],0%
same,Eos,[1],0.8%
same,Fbg,[1],290.2 mg/dL
same,Hb,[1],12.9 g/dL
same,Ht,[1],39%
same,Lym,[1],83.6%
same,MCH,[1],21.1 pg
same,MCHC,[1],33.2%
same,MCV,[1],63.7 fL
same,Mono,[1],1.4%
same,Neu,[1],13.6%
same,PT,[1],15.6 s
same,Plat,[1],113 x10_4/uL
same,RBC,[1],611.6 x10_4/ul
same,Ret,[1],8.1%
same,WBC,[1],60.2 x10_2/uL
same,KIDNEY_L,[1],0.8 g
same,KIDNEY_R,[1],0.9 g
same,KIDNEY_TOTAL,[1],1.7 g
same,LIVER,[1],8.3 g
same,ALP,[1],1552.4 IU/L
same,ALT,[1],44.4 IU/L
same,AST,[1],73.4 IU/L
same,BUN,[1],11.2 mg/dL
same,CRE,[1],0.1 mg/dL
same,Ca,[1],10.6 mg/dL
same,Cl,[1],106.4 meq/L
same,DBIL,[1],0 mg/dL
same,GLC,[1],180.6 mg/dL
same,IP,[1],9 mg/dL
same,K,[1],4 meq/L
same,LDH,[1],175.2 IU/L
same,Na,[1],143.8 meq/L
same,PL,[1],137.6 mg/dL
same,RALB,[1],3 g/dL
same,TBIL,[1],0.034 mg/dL
same,TC,[1],81.4 mg/dL
same,TP,[1],5.4 g/dL
same,gamma-GTP,[1],1 IU/L
same,TERMINAL_BW,[2],189.8 g
same,APTT,[2],22.5 s
same,Bas,[2],0%
same,Eos,[2],0.4%
same,Fbg,[2],311.4 mg/dL
same,Hb,[2],13.1 g/dL
same,Ht,[2],39.4%
same,Lym,[2],78%
same,MCH,[2],21.1 pg
same,MCHC,[2],33.2%
same,MCV,[2],63.6 fL
same,Mono,[2],2.8%
same,Neu,[2],17.8%
same,PT,[2],16.1 s
same,Plat,[2],130.3 x10_4/uL
same,RBC,[2],618.8 x10_4/ul
same,Ret,[2],7.9%
same,WBC,[2],86.9 x10_2/uL
same,KIDNEY_L,[2],0.9 g
same,KIDNEY_R,[2],0.9 g
same,KIDNEY_TOTAL,[2],1.8 g
same,LIVER,[2],8.4 g
same,ALP,[2],1359.6 IU/L
same,ALT,[2],39.6 IU/L
same,AST,[2],66.8 IU/L
same,BUN,[2],8.2 mg/dL
same,CRE,[2],0.1 mg/dL
same,Ca,[2],10.7 mg/dL
same,Cl,[2],107.6 meq/L
same,DBIL,[2],0 mg/dL
same,GLC,[2],172 mg/dL
same,IP,[2],9.5 mg/dL
same,K,[2],4.1 meq/L
same,LDH,[2],162.6 IU/L
same,Na,[2],143.2 meq/L
same,PL,[2],139.4 mg/dL
same,RALB,[2],2.8 g/dL
same,TBIL,[2],0.03 mg/dL
same,TC,[2],77.8 mg/dL
same,TP,[2],5.3 g/dL
same,gamma-GTP,[2],1 IU/L
same,TERMINAL_BW,[3],193 g
same,APTT,[3],20.2 s
same,Bas,[3],0%
same,Eos,[3],1%
same,Fbg,[3],309 mg/dL
same,Hb,[3],12.6 g/dL
same,Ht,[3],37.9%
same,Lym,[3],71.6%
same,MCH,[3],21.1 pg
same,MCHC,[3],33.3%
same,MCV,[3],63.3 fL
same,Mono,[3],2.6%
same,Neu,[3],24.4%
same,PT,[3],16.3 s
same,Plat,[3],115.7 x10_4/uL
same,RBC,[3],599.6 x10_4/ul
same,Ret,[3],8.6%

# — ChEMBL document CHEMBL3885861, “Open TG-GATES”
